Assays:
Type in all cases: in vivo
Oryza sativa (ORYSA) = assay: Post-emergence crop plant compatibility, greenhouse pot test (also comparative test C); settings: for Post-emergence action against ORYSA (crop plant compatibility): vs untreated controls
Method: (§1) Seeds of monocotyledonous and dicotyledonous weeds and crop plants were placed in sandy loam in plastic or wood-fiber pots, covered with soil and cultivated in a greenhouse under controlled growth conditions. 2 to 3 weeks after sowing, the test plants were treated at the one-leaf stage. The compounds of the invention, formulated in the form of wettable powders (WP) or as emulsion concentrates (EC), were then sprayed onto the green parts of the plants as aqueous suspension or emulsion with addition of 0.5% additive at a water application rate of 600 l/ha (converted). After the test plants had been kept in the greenhouse under optimum growth conditions for about 3 weeks, the activity of the preparations was rated visually in comparison to untreated controls. For example, 100% activity=the plants have died, 0% activity=like control plants.
(§2) The observed effects on selected crop plants are reported here in comparison to the untreated controls (values in %). The appendices “a”, “b” and “c” give differentiation by different dosage with otherwise the same crop plants tested.
(§3) C. Comparative Herbicidal Action and Crop Plant Compatibility of Two Inventive Compounds (I.7-1 and I.7-115) with a Compound of Similar Structure Known from the Literature (WO2002/098227, a-17 and EP1106607, 3-14) in Post-Emergence Treatment.

[1] = system: Echinochloa crus-galli (ECHCG); assay: Post-emergence herbicidal action, greenhouse pot test (also comparative test C)
Method: as §1
(§4) Tables A1 to A14 below show the effects of selected compounds of the general formula (I) according to Tables I.1 to I.33 on various harmful plants and at an application rate corresponding to 20 g/ha and less, which were obtained by the experimental method specified above. The appendices “a”, “b” and “c” give differentiation by different dosage with otherwise the same harmful plants tested.
as §3
(§5) Tables C1-C4 below show the effects of two inventive compounds (I.7-1 and I.7-115) together with a compound of similar structure known from the literature (a-17 in WO2002/098227, and 3-14 in EP1106607) in different crop plants at an application rate corresponding to 5 g/ha or less, which have been obtained by the aforementioned experimental procedure.

Setaria viridis (SETVI) = assay: as above; settings: for Post-emergence action against SETVI: 20 g/ha
Method: as §1, §4, §3, §5

[2] = system: Matricaria inodora (MATIN); assay: as above
Method: as §1, §4, §3, §5

Viola tricolor (VIOTR) = assay: Post-emergence herbicidal action, greenhouse pot test
Method: as §1, §4

[3] = system: Abutilon theophrasti (ABUTH); assay: as above; settings: rated visually after about 3 weeks vs untreated controls, 100% = plants have died
Method: as §1, §4

[4] = system: Pharbitis purpurea (PHBPU); assay: as above
Method: as §1, §4

[5] = system: Amaranthus retroflexus (AMARE); assay: as above; settings: rated visually after about 3 weeks vs untreated controls, 100% = plants have died
Method: as §1, §4

Veronica persica (VERPE) = assay: as above
Method: as §1, §4

[6] = system: Polygonum convolvulus (POLCO); assay: as above
Method: as §1, §4

[7] = system: Triticum aestivum (TRZAS); assay: Post-emergence crop plant compatibility, greenhouse pot test; settings: vs untreated controls
Method: as §1, §2

Zea mays (ZEAMX) = assay: as above; settings: 1.25 g/ha, vs untreated controls
Method: as §1, §2

[8] = system: Alopecurus myosuroides (ALOMY); assay: Post-emergence herbicidal action, greenhouse pot test (also comparative test C); settings: 20 g/ha, rated visually after about 3 weeks vs untreated controls, 100% = plants have died
Method: as §1, §4, §3, §5

Row | Compound | Post-emergence action against ECHCG in % ([1]; dosage 5 g/ha) [%] | Post-emergence action against ECHCG in % ([1]; dosage 20 g/ha) [%] | Post-emergence action against SETVI (Setaria viridis (SETVI)) [%] | Post-emergence action against SETVI in % (Setaria viridis (SETVI); dosage 1.25 g/ha) [%] | Post-emergence action against SETVI in % (Setaria viridis (SETVI); dosage 5 g/ha) [%] | Post-emergence action against MATIN in % ([2]; dosage 20 g/ha) [%] | Post-emergence action against VIOTR (Viola tricolor (VIOTR); 1.25 g/ha) [%] | Post-emergence action against VIOTR (Viola tricolor (VIOTR); 5 g/ha) [%] | Post-emergence action against VIOTR (Viola tricolor (VIOTR); 20 g/ha) [%] | Post-emergence action at 5 g/ha against ABUTH in % [3] [%] | Post-emergence action at 20 g/ha against ABUTH in % [3] [%] | Post-emergence action against PHBPU in % ([4]; dosage 5 g/ha) [%] | Post-emergence action against PHBPU in % ([4]; dosage 20 g/ha) [%] | Post-emergence action at 1.25 g/ha against AMARE in % [5] [%] | Post-emergence action at 5 g/ha against AMARE in % [5] [%] | Post-emergence action at 20 g/ha against AMARE in % [5] [%] | Post-emergence action against VERPE (Veronica persica (VERPE); 5 g/ha) [%] | Post-emergence action against VERPE (Veronica persica (VERPE); 20 g/ha) [%] | Post-emergence action against POLCO in % ([6]; dosage 20 g/ha) [%] | Post-emergence action against TRZAS (crop plant compatibility) ([7]; 1.25 g/ha) [%] | also measured
1 | COCCOC(=O)COc1ccccc1Oc1cc(-n2c(=O)cc(C(F)(F)F)n(C)c2=O)c(F)cc1C#N [I.9-1] | 90 | 100 | 100 | 80 | 100 | 100 | 100 | 100 | 100 | 100 | 100 | 100 | 100 | 100 | 100 | 100 | 100 | 100 | 100 | 0 | Post-emergence action against ORYSA (crop plant compatibility) (Oryza sativa (ORYSA); 1.25 g/ha): 0%; Post-emergence action against ORYSA (crop plant compatibility) (Oryza sativa (ORYSA); 5 g/ha): 20%; Post-emergence action against MATIN in % ([2]; dosage 5 g/ha): 80%; Post-emergence action at 1.25 g/ha against ABUTH in % [3]: 100%; Post-emergence action against VERPE (Veronica persica (VERPE); 1.25 g/ha): 100%; Post-emergence action against TRZAS (crop plant compatibility) ([7]; 5 g/ha): 10%; Post-emergence action against TRZAS (crop plant compatibility) ([7]; 20 g/ha): 10%; Post-emergence action against ZEAMX (crop plant compatibility) (Zea mays (ZEAMX)): 10%
2 | COCCOCCOC(=O)COc1ccc(F)cc1Oc1cc(-n2c(=O)cc(C(F)(F)F)n(C)c2=O)c(F)cc1Cl [I.23-23] | 100 | 100 | 100 | 100 | 100 | 100 | 100 | 100 | 100 | 100 | 100 | 100 | 100 | 100 | 100 | 100 | 100 | 100 | 100 | 20 | Post-emergence action at 20 g/ha against ALOMY in % [8]: 100%; Post-emergence action against PHBPU in % ([4]; dosage 1.25 g/ha): 100%; Post-emergence action against POLCO in % ([6]; dosage 1.25 g/ha): 100%; Post-emergence action against POLCO in % ([6]; dosage 5 g/ha): 100%; Post-emergence action against ZEAMX (crop plant compatibility) (Zea mays (ZEAMX)): 20%
3 | Cn1c(C(F)(F)F)cc(=O)n(-c2cc(Oc3cc(F)ccc3OCC(=O)OCc3ccccn3)c(Cl)cc2F)c1=O [I.23-276] | 100 | 100 | 100 | 100 | 100 | 90 | 80 | 100 | 100 | 100 | 100 | 100 | 100 | 90 | 100 | 100 | 100 | 100 | 100 | 20 | Post-emergence action against ORYSA (crop plant compatibility) (Oryza sativa (ORYSA); 1.25 g/ha): 0%; Post-emergence action against ORYSA (crop plant compatibility) (Oryza sativa (ORYSA); 5 g/ha): 10%; Post-emergence action against ORYSA in % (Oryza sativa (ORYSA); 20 g/ha, crop plant compatibility): 10%; Post-emergence action at 1.25 g/ha against ECHCG in % ([1]; 1.25 g/ha, rated visually after about 3 weeks vs untreated controls, 100% = plants have died): 100%; Post-emergence action at 20 g/ha against ALOMY in % [8]: 100%; Post-emergence action at 1.25 g/ha against ABUTH in % [3]: 90%; Post-emergence action against PHBPU in % ([4]; dosage 1.25 g/ha): 90%; Post-emergence action against VERPE (Veronica persica (VERPE); 1.25 g/ha): 80%; Post-emergence action against TRZAS (crop plant compatibility) ([7]; 5 g/ha): 20%
